Test results from PubChem BioAssay AID2060355 (Molecular Pharmacology Branch, DTP, NCI, 2025).
Where “and” joins values, the source holds several entries; their conditions need not be identical. Equal entries are not always repeated.

System: 485368-065-R4-J2-PDC spheroids with HUVEC/MSC, viability
Test: Anticancer human tumor 485368-065-R4-J2-PDC patient-derived pancreatic carcinoma cell line growth inhibition [TAK]
Settings: for viability, T/C: stronger effect = lower value; active = viability on the fitted dose curve at most 10% of control; inactive = the rest
Description: Combinatorial screen of targeted agents with TAK-243 and ipatasertib in multi-cell type tumor spheroids
A high-throughput screen of multi-cell type tumor spheroids was designed to identify active combinations of targeted small molecules and TAK-243 or ipatasertib. Complex spheroids include a stromal component modeled by human endothelial cells (HUVEC) and fibroblasts modeled by human mesenchymal stem cells (MSCs). The concentration ranges selected for each drug and investigational agent were based upon clinically achievable concentrations if the clinical Cmax of the agent was known.
Compounds. The drugs and investigational agents: TAK-243 (785004), ipatasertib (767898), everolimus (733504), selumetinib (741078), bortezomib (756655), trametinib (758246), ixazomib (758254), vemurafenib (761431), dabrafenib (764134), sapanisertib (764658), alpelisib (765974), and copanlisib (816437), were obtained from the National Cancer Institute (NCI) Developmental Therapeutics Program Chemical Repository. The FDA-approved anticancer drug set is available from the NCI Developmental Therapeutics Program. […] The stock solutions were prepared in dimethyl sulfoxide (DMSO, Sigma-Aldrich, St. Louis, MO, cat. D2650) at 800-fold the tested concentration and stored at -70 degrees C prior to their use. All drugs and investigational agents were tested over a range starting from a high concentration at or near the clinical Cmax and decreasing in half-log increments. If the clinical Cmax for an agent had not been determined, the highest concentration tested was 10 microM.
NCI60 Cell Culture. NCI60 cell lines were obtained from the NCI Developmental Therapeutics Program Tumor Repository. For each lot of cells, the Repository performed Applied Biosystems AmpFLSTR Identifiler testing with PCR amplification to confirm consistency with the published Identifier STR profile for each cell line. Cells were kept in continuous culture for no more than 20 passages. The optimal seeding densities for each of the cell lines at each time point assessed were determined prior to performing the concentration response studies. Briefly, the NCI60 human tumor lines were grown as monolayers in RPMI 1640 medium supplemented with 10% FBS and 2 mmol/L L-glutamine.
An additional 2 lines were from the NCI60 cell line panel including melanomas, MALME-3M and SK-MEL-2. Pooled donor human umbilical vein endothelial cells (HUVEC, Lonza, cat. CC-2519) and human mesenchymal stem cells (hMSC, Lonza, cat. PT-2501) were purchased from Lonza (Walkersville, MD).
PDMR cell lines were grown in complete medium (DC medium): Dulbecco's modified Eagle's medium (DMEM)/F12 supplemented with 5% fetal bovine serum (FBS), 2 mM L-glutamine, 100 U/mL penicillin and 100 µg/ml streptomycin, 0.4 µg/ml hydrocortisone, 10 ng/ml epidermal growth factor (EGF) recombinant human protein, 24 µg/mL adenine, and 0.1 mg/mL primocin. During culture from frozen stock vials, PDMR cells were cultured in the same medium containing 10 µM Y-27632 (see Table 3). The PDCs were cultured in complete DMEM/F12 media without 10 microM Y-27632 dihydrochloride for at least two passages prior to the screen. The pooled donor HUVEC and hMSC were cultured in endothelial cell growth medium 2 (PromoCell, Heidelberg, Germany, cat. C-22011) and mesenchymal stem cell growth medium 2 (PromoCell, cat. C-28009), respectively. For all experiments, HUVEC and hMSC were used at passages </=5.
For the pre-screen, cell seeding densities were determined from a titration spanning the range from 5,000 to 313 cells per well. The mct-spheroids including 60% malignant cells, 25% HUVEC and 15% MSC dispensed as a mixture into U-bottom Ultra-Low Attachment 384-well plates (Corning, NY)
High-throughput Drug Combination Screening.
Prior to their inoculation into 384-well plates, malignant cells, HUVEC, and hMSC were removed from T flasks using TrypLE express (Thermo Fisher Scientific, cat. 12605036) and harvested by centrifugation for 5 min at 233 x g. […]
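Note: spheroids exposed to compounds for seven days before readout.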

CCCS(=O)(=O)Nc1ccc(F)c(C(=O)c2c[nH]c3ncc(-c4ccc(Cl)cc4)cc23)c1F + CC(C)NCC(C(=O)N1CCN(c2ncnc3c2C(C)CC3O)CC1)c1ccc(Cl)cc1
4.18 µM: IC50 (curve of first compound, second compound 30 µM)
6.76 µM: IC50 (curve of first compound, second compound 3 µM)
inactive: viability, T/C (second compound 0.3 µM, first compound 0.316 µM) 107% | viability, T/C (second compound 0.3 µM, first compound 1 µM) 101% | viability, T/C (second compound 0.3 µM, first compound 3.16 µM) 93.5% | viability, T/C (second compound 0.3 µM, first compound 10 µM) 50.3% | viability, T/C (second compound 0.3 µM, first compound 31.6 µM) 24.3% | viability, T/C (second compound 0.3 µM, first compound 100 µM) 80.8% | viability, T/C (second compound 0.949 µM, first compound 0.316 µM) 103% | viability, T/C (second compound 0.949 µM, first compound 1 µM) 100% | viability, T/C (second compound 0.949 µM, first compound 3.16 µM) 85.7% | viability, T/C (second compound 0.949 µM, first compound 10 µM) 40.8% | viability, T/C (second compound 0.949 µM, first compound 31.6 µM) 25.1% | viability, T/C (second compound 0.949 µM, first compound 100 µM) 85.1% | viability, T/C (second compound 3 µM, first compound 0.316 µM) 101% | viability, T/C (second compound 3 µM, first compound 1 µM) 99.5% | viability, T/C (second compound 3 µM, first compound 3.16 µM) 78.1% | viability, T/C (second compound 3 µM, first compound 10 µM) 34.7% | viability, T/C (second compound 3 µM, first compound 31.6 µM) 29.8% | viability, T/C (second compound 3 µM, first compound 100 µM) 19.4% | viability, T/C (second compound 9.49 µM, first compound 0.316 µM) 96.7% | viability, T/C (second compound 9.49 µM, first compound 1 µM) 95.6% | viability, T/C (second compound 9.49 µM, first compound 3.16 µM) 77.4% | viability, T/C (second compound 9.49 µM, first compound 10 µM) 28.8% | viability, T/C (second compound 9.49 µM, first compound 31.6 µM) 20.2% | viability, T/C (second compound 9.49 µM, first compound 100 µM) 14.8% | viability, T/C (second compound 30 µM, first compound 0.316 µM) 84% | viability, T/C (second compound 30 µM, first compound 1 µM) 83.8% | viability, T/C (second compound 30 µM, first compound 3.16 µM) 62.7% | viability, T/C (second compound 30 µM, first compound 10 µM) 10.1% | viability, T/C (second compound 30 µM, first compound 31.6 µM) 10.2% | viability, T/C (second compound 30 µM, first compound 100 µM) 9.85%
6.08 µM: IC50 (curve of first compound, second compound 9.49 µM)
> 100 µM: IC50 (curve of first compound, second compound 0.3 µM) | IC50 (curve of first compound, second compound 0.949 µM)

CC(=O)Nc1cccc(-n2c(=O)n(C3CC3)c(=O)c3c(Nc4ccc(I)cc4F)n(C)c(=O)c(C)c32)c1
0.00519 µM and 0.0104 µM: IC50 (curve of compound)
inactive: viability, T/C (compound 94.9 pM) 99.6% and 93% | viability, T/C (compound 0.0003 µM) 77.8% and 84% | viability, T/C (compound 0.000949 µM) 63.6% and 75.9% | viability, T/C (compound 0.003 µM) 62.5% and 71% | viability, T/C (compound 0.00949 µM) 45.7% and 50.3% | viability, T/C (compound 0.03 µM) 29.4% and 30.5%
